Test results reported in ChEMBL document CHEMBL5352493, “Dual inhibitors of ASK1 and PDK1 kinases: Design, synthesis, molecular docking and mechanism studies of N-benzyl pyridine-2-one containing derivatives as anti-fibrotic agents” (Eur J Med Chem, 2023).
Active and inactive are the calls of the source. The rule behind the calls is not given here.

Experiments:
[1] = Antiproliferative against HLF1 cells measured after 48 hrs by CCK8 assay; type: toxicity, cell-based; settings: human, HFL1 cells (description prints HLF1)
HFL1 [2] = test: Induction of apoptosis in HLF1 cells assessed as early apoptotic cells at 10 uM incubated for 24 hrs measured by annexinV-FITC/PI based flow cytometric analysis (reference value: 11.6%); type: functional, Homo sapiens
[3] = target: T1, Mitogen-activated protein kinase kinase kinase 5 (Homo sapiens, UniProt Q99683); test: Inhibition of human recombinant ASK1 using MBP as substrate preincubated for 1 hr followed by reagent addition incubated for 40 mins by ATP-Glo kinase assay
T1 sequence (Q99683 whole entry): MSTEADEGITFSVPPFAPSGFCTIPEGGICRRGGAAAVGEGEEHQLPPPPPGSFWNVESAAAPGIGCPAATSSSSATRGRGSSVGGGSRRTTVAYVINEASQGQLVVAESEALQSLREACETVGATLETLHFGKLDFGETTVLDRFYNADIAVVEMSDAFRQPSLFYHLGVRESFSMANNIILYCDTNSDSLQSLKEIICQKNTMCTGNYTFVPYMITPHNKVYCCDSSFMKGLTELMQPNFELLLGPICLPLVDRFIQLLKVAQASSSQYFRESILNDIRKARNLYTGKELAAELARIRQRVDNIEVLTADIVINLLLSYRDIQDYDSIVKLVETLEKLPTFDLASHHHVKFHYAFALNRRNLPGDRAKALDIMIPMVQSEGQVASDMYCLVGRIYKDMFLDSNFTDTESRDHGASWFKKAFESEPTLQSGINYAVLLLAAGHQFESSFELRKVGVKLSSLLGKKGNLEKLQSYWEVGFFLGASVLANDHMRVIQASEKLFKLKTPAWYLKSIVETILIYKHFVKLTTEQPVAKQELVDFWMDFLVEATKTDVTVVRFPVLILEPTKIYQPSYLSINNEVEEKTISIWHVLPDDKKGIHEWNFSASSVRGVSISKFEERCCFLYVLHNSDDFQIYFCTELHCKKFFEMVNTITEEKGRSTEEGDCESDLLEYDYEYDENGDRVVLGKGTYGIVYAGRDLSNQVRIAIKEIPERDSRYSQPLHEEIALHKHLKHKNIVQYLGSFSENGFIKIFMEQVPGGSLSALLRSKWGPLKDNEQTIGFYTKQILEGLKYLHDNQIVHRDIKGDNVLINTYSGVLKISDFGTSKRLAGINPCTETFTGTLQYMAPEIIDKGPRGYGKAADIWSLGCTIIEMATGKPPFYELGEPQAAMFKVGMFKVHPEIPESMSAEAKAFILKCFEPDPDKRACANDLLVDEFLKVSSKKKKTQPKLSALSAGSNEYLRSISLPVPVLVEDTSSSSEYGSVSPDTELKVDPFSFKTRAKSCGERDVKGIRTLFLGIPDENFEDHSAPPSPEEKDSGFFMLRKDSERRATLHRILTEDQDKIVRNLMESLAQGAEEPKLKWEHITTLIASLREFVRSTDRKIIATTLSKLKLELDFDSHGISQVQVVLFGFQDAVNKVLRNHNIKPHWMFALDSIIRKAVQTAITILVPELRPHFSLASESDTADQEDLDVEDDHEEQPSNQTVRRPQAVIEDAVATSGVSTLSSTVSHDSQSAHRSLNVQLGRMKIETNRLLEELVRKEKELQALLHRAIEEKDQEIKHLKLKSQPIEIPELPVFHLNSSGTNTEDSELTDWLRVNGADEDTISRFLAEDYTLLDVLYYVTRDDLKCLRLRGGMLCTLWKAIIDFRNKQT

HFL1 [4] = test: Antifibrotic activity in TGF-beta1 induced HLF1 cells assessed as decrease in phosphorylated smad3 level measured at 5 to 10 uM after 24 hrs by Western blotting analysis; type: functional, cell-based; settings: Homo sapiens, dose 5-10 µM
HFL1 [5] = test: Antifibrotic activity in TGF-beta1 induced HLF1 cells assessed as decrease in phosphorylated smad2 level measured at 5 to 10 uM after 24 hrs by Western blotting analysis; type: functional, cell-based; settings: Homo sapiens, dose 5-10 µM
HFL1 [6] = test: Induction of apoptosis in HLF1 cells assessed as early apoptotic cells at 15 uM incubated for 24 hrs measured by annexinV-FITC/PI based flow cytometric analysis (reference value: 11.6%); type: functional, Homo sapiens
HFL1 [7] = test: Induction of apoptosis in HLF1 cells assessed as early apoptotic cells at 5 uM incubated for 24 hrs measured by annexinV-FITC/PI based flow cytometric analysis (reference value: 11.6%); type: functional, Homo sapiens
[8] = Antiproliferative against rat HSC-T6 cells measured after 48 hrs by CCK8 assay; type: toxicity, cell-based
HFL1 [9] = test: Induction of apoptosis in HLF1 cells assessed as necrotic cells at 10 uM incubated for 24 hrs measured by annexinV-FITC/PI based flow cytometric analysis (reference value: 0%); type: functional, Homo sapiens
HFL1 [10] = test: Induction of apoptosis in HLF1 cells assessed as late apoptotic cells at 15 uM incubated for 24 hrs measured by annexinV-FITC/PI based flow cytometric analysis (reference value: 0.08%); type: functional, Homo sapiens
[11] = Antiproliferative against rat NRK-49F cells measured after 48 hrs by CCK8 assay; type: toxicity, cell-based
[12] = Antiproliferative against human BEAS-2B cells measured after 48 hrs by CCK8 assay; type: toxicity, cell-based
HFL1 [13] = test: Downregulation of phosphorylated ASK1 in TGF-beta1 induced HFL1 cells at 5 to 10 uM for 24 hrs by Western blotting analysis; type: functional, cell-based; settings: Homo sapiens, dose 5-10 µM
HFL1 [14] = test: Induction of apoptosis in HLF1 cells assessed as necrotic cells at 5 uM incubated for 24 hrs measured by annexinV-FITC/PI based flow cytometric analysis (reference value: 0%); type: functional, Homo sapiens
HFL1 [15] = test: Induction of apoptosis in HLF1 cells assessed as late apoptotic cells at 10 uM incubated for 24 hrs measured by annexinV-FITC/PI based flow cytometric analysis (reference value: 0.08%); type: functional, Homo sapiens
HFL1 [16] = test: Downregulation of phosphorylated PDK1 in TGF-beta1 induced HFL1 cells at 5 to 10 microM for 24 hrs by Western blotting analysis; type: functional, cell-based; settings: Homo sapiens, dose 5-10 µM
HFL1 [17] = test: Induction of apoptosis in HLF1 cells assessed as viable cells at 10 uM incubated for 24 hrs measured by annexinV-FITC/PI based flow cytometric analysis (reference value: 88.3%); type: functional; settings: Homo sapiens, read-out: Activity
HFL1 [18] = test: Downregulation of phosphorylated Akt in TGF-beta1 induced HFL1 cells at 10 microM for 24 hrs by Western blotting analysis; type: functional, cell-based; settings: Homo sapiens
HFL1 [19] = test: Downregulation of phosphorylated JNK in TGF-beta1 induced HFL1 cells at 5 to 10 uM for 24 hrs by Western blotting analysis; type: functional, cell-based; settings: Homo sapiens, dose 5-10 µM
HFL1 [20] = test: Induction of apoptosis in HLF1 cells assessed as viable cells at 5 uM incubated for 24 hrs measured by annexinV-FITC/PI based flow cytometric analysis (reference value: 88.3%); type: functional; settings: Homo sapiens, read-out: Activity
HFL1 [21] = test: Induction of apoptosis in HLF1 cells assessed as late apoptotic cells at 5 uM incubated for 24 hrs measured by annexinV-FITC/PI based flow cytometric analysis (reference value: 0.08%); type: functional, Homo sapiens
HFL1 [22] = test: Antifibrotic activity in TGF-beta1 induced HLF1 cells assessed as decrease in collagen-I expression level measured at 5 to 10 uM after 24 hrs by Western blotting analysis; type: functional, cell-based; settings: Homo sapiens, dose 5-10 µM
HFL1 [23] = test: Induction of apoptosis in HLF1 cells assessed as decrease in antiapoptotic Bcl-2 protein at 5 to 10 uM for 24 hrs by Western blotting analysis; type: functional, cell-based; settings: Homo sapiens, dose 5-10 µM
HFL1 [24] = test: Downregulation of phosphorylated p38 in TGF-beta1 induced HFL1 cells at 5 to 10 uM for 24 hrs by Western blotting analysis; type: functional, cell-based; settings: Homo sapiens, dose 5-10 µM
HFL1 [25] = test: Induction of apoptosis in HLF1 cells assessed as necrotic cells at 15 uM incubated for 24 hrs measured by annexinV-FITC/PI based flow cytometric analysis (reference value: 0%); type: functional, Homo sapiens
HFL1 [26] = test: Antifibrotic activity in TGF-beta1 induced HLF1 cells assessed as decrease in alpha SMA expression level measured at 5 to 10 uM after 24 hrs by Western blotting analysis; type: functional, cell-based; settings: Homo sapiens, dose 5-10 µM
HFL1 [27] = test: Induction of apoptosis in HLF1 cells assessed as viable cells at 15 uM incubated for 24 hrs measured by annexinV-FITC/PI based flow cytometric analysis (reference value: 88.3%); type: functional; settings: Homo sapiens, read-out: Activity

Compound `CC(C)n1cc(-c2cc(C(=O)Nc3cccc(-c4nncn4C4CC4)n3)c(=O)n(Cc3ccccc3F)c2)cn1` has an IC50 at 48 h [1] of 9.2 µM, an Activity (HFL1 [2]) of 25.6% and an IC50 [3] of 0.00913 µM. For the same compound, the Activity (HFL1 [4]) was “Active”, the Activity (HFL1 [5]) was “Active” and the Activity (HFL1 [6]) was 30%. It also gave an Activity (HFL1 [7]) of 19.4%, an IC50 at 48 h [8] of 25 µM and an Activity (HFL1 [9]) of 0%. For the same compound, the Activity (HFL1 [10]) was 0.069%, the IC50 at 48 h [11] was 14.8 µM and the IC50 at 48 h [12] was 33 µM. For the same compound, the Activity (HFL1 [13]) was “Active”, the Activity (HFL1 [14]) was 0% and the Activity (HFL1 [15]) was 0.034%. The Activity (HFL1 [16]) was “Dose-Dependent Effect”, the viability at 10 µM (HFL1 [17]) was 74.3% and the Activity (HFL1 [18]) was “Active”. The Activity (HFL1 [19]) was “Active”, the viability at 5 µM (HFL1 [20]) was 80.5% and the Activity (HFL1 [21]) was 0.092%. The Activity (HFL1 [22]) was “Dose-Dependent Effect”, the Activity (HFL1 [23]) was “Active” and the Activity (HFL1 [24]) was “Active”. The Activity (HFL1 [25]) was 0%, the Activity (HFL1 [26]) was “Dose-Dependent Effect” and the viability at 15 µM (HFL1 [27]) was 69.9%.
